Results on 89 compounds are retold here after a melting point compilation (Tetko et al.; mined from patent text by program, amines drawn as free bases though some values may be those of a salt).

Each structure is given as a SMILES string.

The melting point is the temperature, or range, at which the solid turns liquid.

`O=C(O)c1cn(C2CC2)c2nc(N3CCCC(n4ccnn4)C3)c(F)cc2c1=O` (centres undefined) displayed a melting point of 251 to 254 °C.
Turning to `CC(C)Oc1ccc2c(O)c(C(=O)O)nc(Cl)c2c1`, the melting point lay in the range of 139 to 141 °C.
Under `CN(C)Cc1nnc(CO)n1-c1ccc(Cl)cc1C(=O)c1ccccc1Cl` stands 138 to 141 °C; under `O=c1[nH]ccc2cc3cccnc3n12`, 265 to 266 °C.
The figure for `O=C1CCc2c(Cl)sc(-c3ccncc3)c21` is 163 to 165 °C.
The compound `O=c1nc(-c2cccc(CC(O)=S)n2)sc2ccccc12` displayed a melting point of 258 to 260 °C.
`COc1cc2nccn2c(OC)n1` registered a melting point of 120 to 121 °C.
Compound `O=C1NCC1NC(=O)C(C(=O)OCc1ccccc1)c1ccccc1` (centres undefined) returned a melting point of 164 to 166 °C.
For `Cc1cc(CCC(=O)O)no1`, the melting point is 82 to 84 °C.
The figure for `C#CCCOc1cc(C=O)ccc1OC` is 63 to 65 °C; for `C#CCOc1cc(CO)cc(OCC#C)c1` it is 79 to 80 °C.
For `CCC(=C(c1ccc(O)cc1)c1ccc(O)cc1)c1ccc(OCCO)c(OC)c1`, the melting point lay in the range of 158 to 159 °C.
For `CC(Oc1cc(Oc2ccc(C(F)(F)F)cc2Cl)ccc1C#N)C(N)=O` (centres undefined), the melting point is 134 to 137 °C.
The figure for `COC(=O)C1=C(C)NC(C)=C(C(C)=O)C1c1ccccc1Br` (centres undefined) is 146 to 148 °C.
The compound `Cc1c(CCC(=O)O)cccc1C(=O)c1ccc(Cl)cc1` came in with a melting point of 144 to 148 °C.
Regarding `CC(=O)Oc1ccc(C=C2SC(=O)NC2=O)cc1`, the melting point is 238 to 240 °C.
As to `CCCOc1ccc(S(=O)(=O)NCCc2c[nH]cn2)cc1-c1nc2cc(Cl)c([N+](=O)[O-])cc2c(=O)[nH]1`, the melting point lay in the range of 140 to 144 °C.
The figure for `CC(=O)NC[C@H]1CN(c2ccc(N3CCC(n4nnnc4CC(=O)N4CCOCC4)CC3)c(F)c2)C(=O)O1` is 146 to 148 °C.
In turn, `O=S(=O)(c1ccc(O)cc1)c1ccc2cc(Br)ccc2c1` registered a melting point of 178 to 180 °C.
For `CN(C)c1ccc([PH](=O)c2ccc(N(C)C)cc2)cc1`, the melting point is 152 °C.
On to `COc1cccc2c(=O)c3c(O)cc(OCC(O)CO)cc3oc12` (centres undefined), for which the melting point was determined as 189 °C.
In the case of `Cc1nc(-c2ccc(S(C)(=O)=O)cc2)c(-c2ccc(-c3cscn3)cc2)s1`, the melting point turned out to be 194 °C.
The figure for `CCOC(=O)C1CCc2cc(NS(C)(=O)=O)ccc2O1` (centres undefined) is 111 °C.
The figure for `Cc1c(O)cccc1Br` is 89 °C; for `CN1C[C@@H](C(=O)OCc2ccccc2)N(C(=O)OCc2ccccc2)C1=O` it is 120 to 122 °C; for `CCc1nc2c(N)nc3ccccc3c2n1CCCCS(=O)(=O)N(C)C` it is 193 to 195 °C.
Under `COc1ccc(C(=O)N2CCc3nnc(NN)cc3C2)cc1` stands 169 to 172 °C; under `N#Cc1ccc(CC2CCN(C(=O)c3ccc(Cl)cc3)CC2)cc1`, 137 to 139 °C.
`C[C@@H]1C(=O)N(c2ccc(C#N)c(C(F)(F)F)c2)[C@@H](C)[C@H]1O`: the melting point fell in the range of 82 to 85 °C.
`CCCCc1nnc(SCC(=O)OC)n1Cc1ccc(NC(=O)c2ccccc2C(=O)O)cc1` displayed a melting point of 161 to 162 °C.
Under `COc1cccc(-c2cc(-c3ccc(-c4c(Cc5ccccc5)sc5ccccc45)cc3)cc(Br)c2OCC(=O)O)c1` stands 88 to 90 °C; under `CCN1CCCC(CC)(c2ccc(Nc3ncc4ccc(-c5ccccc5N(C)S(C)(=O)=O)n4n3)cc2)C1` (centres undefined), 93 to 101 °C.
Under `Cc1nc(N2CCCC(Cc3ccccc3)C2=O)sc1C(=O)NCc1ccccc1` (centres undefined) stands 162 to 164 °C; under `CCNc1nc(NCc2ccc(NC(=O)C3CCN(Cc4ccccc4)CC3)cc2)c2ccc(C)cc2n1`, 55 °C; under `CNC(=O)c1cccc(NC(=O)Cc2ccc(Br)cc2)c1`, 165 to 166 °C.
The figure for `CCCC(CCC)C(=O)N[C@H](C(=O)N[C@H]1CCO[C@@H]1OC)C(C)C` is 150 to 156 °C; for `CN1CCN(c2ccc3ncnc(N4CCc5ccc(Cl)cc54)c3c2)CC1` it is 289 to 290 °C.
The compound `Cc1nc2c(o1)-c1c(SC(C)C)sc(C(=O)O)c1CC2` came in with a melting point of 277 to 278 °C.
Under `Cc1cc(C2=CC(c3cc(Cl)cc(Cl)c3)(C(F)(F)F)OC2)ccc1C(=O)OC(C)(C)C` (centres undefined) stands 160 to 162 °C; under `Cc1cc(Br)cnc1CCCCNc1ncc(Cc2ccc(CO)nc2)c(=O)[nH]1`, 61 to 70 °C; under `C[C@@H]1NC(=O)OC1(c1ccccc1)c1ccccc1`, 264 to 266 °C.
Compound `NC(=O)N(O)Cc1sccc1Oc1ccccc1` displayed a melting point of 132 to 134 °C.
The compound `CC(C)N1Cc2ccccc2P1(=O)c1ccccc1` (centres undefined) had a melting point of 92 to 94 °C.
Turning to `CN1CCCC1CCNc1nccc(Oc2ccc(NC(=O)c3cc(F)cc(N4CCOCC4)c3)c3ccccc23)n1` (centres undefined), the melting point lay in the range of 100 to 101 °C.
`CCCCC(CC)n1nnc2c(Nc3c(Cl)cc(OC)cc3OC)nc(C)cc21` (centres undefined) came in with a melting point of 155 to 156 °C.
Regarding `O=C(Nc1ccc(Br)cc1)OC1CN2CCC1CC2` (centres undefined), the melting point fell in the range of 218 to 220 °C.
Consider `C=C(CC(=O)c1ccc(C)cc1)C(=O)O`, for which the melting point lay within 137 to 138 °C.
Under `Cc1ccc(S(=O)(=O)Cc2c(C(F)(F)F)nn(C)c2O)cc1` stands 135 °C; under `COc1ccc2c(c1OC)C(=O)O[C@@H]2[C@H]1c2c(c(I)c3c(c2OC)OCO3)CCN1C`, 172 to 173 °C.
In turn, `CC(O)c1cc2cc(O)c(Cl)c(Cl)c2s1` (centres undefined) gave a melting point of 173 to 174 °C.
In turn, `CCOc1ccncc1NS(=O)(=O)c1nc2cc(C)nc(OC)n2n1` registered a melting point of 184 to 186 °C.
In turn, `O=C(Nc1cccnc1S(=O)(=O)c1ccccc1)N[C@@H](Cc1ccc(NC(=O)c2c(Cl)cccc2Cl)cc1)C(=O)O` came in with a melting point of 181 °C.
The figure for `CCCCCCCCCCCCCCOCCCSCCCO` is 38 to 41 °C.
The compound `CCCCOC(=O)n1c(N)nc(C#N)c1C#N` registered a melting point of 170 to 172 °C.
The figure for `COC(=O)CN(CC(=O)OC)[C@H]1CC[C@H](Nc2ncc3ncnc(Nc4ccc(F)c(Cl)c4)c3n2)CC1` is 181 to 184 °C; for `CCCCCCCCSc1nc2ccccc2[nH]1` it is 110 to 113 °C.
Turning to `COC(=O)c1cc2c(cc1[N+](=O)[O-])OCCO2`, the melting point was 115 to 118 °C.
`CC(C)(C)OC(=O)N[C@@H](CC1CCCCC1)[C@@H]1C[C@@H](C(C)(C)O)C(=O)O1` came in with a melting point of 123 to 125 °C.
In the case of `Oc1nc2ccccc2n2c(C(F)(F)F)nnc12`, the melting point is above 300 °C.
Compound `CC(C)c1nn(-c2ccc(Cl)cc2NO)c(=O)o1` had a melting point of 129 °C.
In turn, `CC[C@@H]1N(c2ccc(C#N)c(C(F)(F)F)c2)C(=O)C[C@]1(C)O` came in with a melting point of 137 to 139 °C.
`CCCCOc1cc(C(=O)O)cc(NC=O)c1C(=O)c1ccccc1` registered a melting point of 180 to 183 °C.
In turn, `Cc1oc2ccc(Br)cc2c(=O)c1-c1ccccc1` showed a melting point of 119 to 121 °C.
On to `COCCn1c(C)nc2cnc3ccccc3c21`, for which the melting point lay in the range of 128 to 130 °C.
In turn, `Nc1nc2cccnc2c2c1ncn2Cc1cc(-c2ccc(F)cc2)no1` registered a melting point of 265 to 266 °C.
Consider `CCCCCC(=O)Nc1ccc2ccn(CCCO)c2c1`, for which the melting point fell in the range of 87 to 88 °C.
`CC12C=CC(=O)C=C1CCC1C2C(=O)CC2(C)C(SCc3ccc(Cl)cc3)CCC12` (centres undefined): the melting point fell in the range of 176 to 180 °C.
Regarding `CCCOc1ccccc1-c1nccc(=O)[nH]1`, the melting point lay in the range of 112 to 113 °C.
Under `CCCONNc1nc(C(=O)c2ccccc2O)nc(C(=O)c2ccccc2O)n1` stands 258 to 260 °C; under `CN(Cc1ccc(Cl)cc1)C(=O)C12CC3CC(CC(C3)C1)C2`, 65 to 66.5 °C.
Under `COc1ccc2c(c1)n(C1CCCCC1)c(=O)n2S(=O)(=O)c1ccc([N+](=O)[O-])cc1` stands 160 °C; under `CCc1nc2c(cnn2CC)c(NC2CCOCC2)c1CNC(=O)c1cccc(C(=O)NCc2ccc(Cl)c(-c3cccc(CN4CCN(C)CC4)c3)c2)c1`, 112 to 114 °C.
Under `O=C(CCCCl)c1ccc2c(c1)Cc1cc(C(=O)CCCCl)ccc1S2` stands 115 to 116 °C; under `C1=C(c2cccc3[nH]ccc23)CNCC1`, 156 °C.
`CC(C)(C)OC(=O)NCC(CNC(=O)OC(C)(C)C)OS(C)(=O)=O` came in with a melting point of 127 °C.
As for `COc1cc(C(=O)O)ccc1-c1ccncc1`, the melting point is 239 to 241 °C.
The figure for `Cc1ccccc1-n1c(C=Cc2ccccc2F)nc2cnccc2c1=O` is 211 to 212 °C; for `CCOC(=O)N(c1ccc(Cl)cc1Cl)c1ccc(Cl)cc1-n1nc(C(=O)O)nc1CCl` it is 186 °C.
Turning to `CCOC(=O)c1nc(-c2cccc(F)c2)c(-c2ccc(=O)n(C(C)C)n2)s1`, the melting point was 154 to 155 °C.
`O=C1CCC(N2C(=O)c3cccc(OCc4ccc(CN5CCSCC5)cc4)c3C2=O)C(=O)N1` (centres undefined) gave a melting point of 221 to 223 °C.
Under `Cc1c(C(=O)OCc2ccccc2)sc2ccc3[nH]c4c(c3c12)CN(C)CC4` stands 174 °C; under `CN(CC(=O)[C@H](Cc1ccccc1)NC(=O)N1CCCCC1)C(=O)N1CCC[C@H]1C(=O)O`, 69 to 72 °C.
In turn, `CCc1nc2c(N)nc3ccccc3c2n1CC(C)(C)OCCS(C)(=O)=O` came in with a melting point of 206 to 209 °C.
The figure for `COC(=O)CCn1c(=O)n2n(c1=O)C(C(=O)OC)C=CC2` (centres undefined) is 91 to 92 °C.
Under `O=C(O)C1Sc2ccccc2-c2[nH]c3ccccc3c21` (centres undefined) stands 142 °C; under `Cc1ccc(-c2ccc(O)cc2)c(-c2ccc(OCCN3CCCCC3)cc2)n1`, 90 to 100 °C; under `Cc1cc(C)cc(NC(=O)Cc2ccc(OC3(C(=O)O)CCCC(C)C3)cc2)c1` (centres undefined), 175 to 177 °C.
The figure for `Cc1cc(O)c(S(=O)Cc2ccc(Cl)cc2)c(=O)o1` (centres undefined) is 150 to 151 °C; for `COc1ccccc1-n1c(Cn2cnc3c(N)ncnc32)nc2cccc(Cl)c2c1=O` it is 257 °C.
